# Measurements published in ChEMBL document CHEMBL1201862, “PubChem BioAssay data set” (2004).
# Values joined by “and” are separate entries in the source; they are usually repeats but may differ in a detail not shown here. Equal entries are not always repeated. Active and inactive are the calls of the source.
# What was measured:
# Cytochrome P450 3A4 = Cytochrome P450 3A4 (Homo sapiens, UniProt P08684);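 also: CYP3A4 tested as one member of a cytochrome P450 panel screen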
# Cytochrome P450 2C9 = Cytochrome P450 2C9 (Homo sapiens, UniProt P11712)
# INS1 = experiment: INS-1E survival protection against cytokine death – cell-based, luminescence, retest, dose response (AID 449756); assay type: functional; conditions: Rattus norvegicus;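 also: cell death triggered by IL-1 beta plus TNF-alpha plus IFN-gamma mixture; protective hits raise ATP signal compared with cytokine alone wells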
# [1] = system: Streptococcus sp. 'group A'; experiment: Streptococcus pyogenes SK(-)GAS viability under kanamycin – luminescence, BacTiterGlo, confirmation, counter-screen for streptokinase expression inhibitor project, dose response (AID 1900); assay type: functional, organism-based
# Streptokinase A = target: T1, Streptokinase A (Streptococcus pyogenes serotype M1, UniProt P10520); experiment: viability-normalized secreted streptokinase activity reduction – plasminogen activation absorbance, OD405, dose response (AID 1914); assay type: functional, Streptococcus pyogenes M1 GAS;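 also: secreted streptokinase activity via plasminogen activation per viability signal from cell pellet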
# T1 sequence (P10520 whole entry): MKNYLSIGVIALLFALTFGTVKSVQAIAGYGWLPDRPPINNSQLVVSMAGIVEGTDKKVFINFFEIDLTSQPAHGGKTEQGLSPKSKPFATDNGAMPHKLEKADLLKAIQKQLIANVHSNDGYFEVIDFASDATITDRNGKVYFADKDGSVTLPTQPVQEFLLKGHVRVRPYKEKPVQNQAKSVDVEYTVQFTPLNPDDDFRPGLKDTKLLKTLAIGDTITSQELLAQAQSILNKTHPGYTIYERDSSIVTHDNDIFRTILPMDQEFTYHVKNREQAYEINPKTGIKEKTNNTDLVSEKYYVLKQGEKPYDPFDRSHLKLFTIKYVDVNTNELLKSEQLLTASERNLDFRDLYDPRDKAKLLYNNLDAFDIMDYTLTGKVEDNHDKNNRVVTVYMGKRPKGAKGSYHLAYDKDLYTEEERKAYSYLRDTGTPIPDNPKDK
# Streptococcus = experiment: GAS UMAA2166 growth inhibition – luminescence, BacTiterGlo, counter-screen for streptokinase expression inhibitor project, dose response (AID 1915); assay type: functional, organism-based;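 also: potency for reduction of bacterial viability or growth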
# [2] = target: T2, Corticotropin-releasing factor receptor 2/Corticotropin-releasing factor-binding protein (Homo sapiens, UniProt P24387+Q13324); experiment: Dose Response confirmation of uHTS hits for small molecule antagonists of the CRF-binding protein and CRF-R2 receptor complex.; assay type: functional; conditions: read-out: IC50_Mean
# T2 sequence (Q13324 whole entry): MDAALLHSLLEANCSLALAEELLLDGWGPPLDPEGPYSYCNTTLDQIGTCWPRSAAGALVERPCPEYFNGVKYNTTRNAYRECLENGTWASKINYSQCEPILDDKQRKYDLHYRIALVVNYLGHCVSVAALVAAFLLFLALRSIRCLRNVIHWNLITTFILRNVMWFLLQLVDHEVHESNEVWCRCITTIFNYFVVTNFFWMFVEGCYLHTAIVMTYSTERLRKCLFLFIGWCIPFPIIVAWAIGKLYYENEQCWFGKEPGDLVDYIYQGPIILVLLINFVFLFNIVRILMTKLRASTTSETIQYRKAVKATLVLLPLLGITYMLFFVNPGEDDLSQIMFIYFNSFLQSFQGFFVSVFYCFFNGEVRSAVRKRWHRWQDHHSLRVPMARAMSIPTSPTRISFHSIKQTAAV
# T2 sequence (P24387 whole entry): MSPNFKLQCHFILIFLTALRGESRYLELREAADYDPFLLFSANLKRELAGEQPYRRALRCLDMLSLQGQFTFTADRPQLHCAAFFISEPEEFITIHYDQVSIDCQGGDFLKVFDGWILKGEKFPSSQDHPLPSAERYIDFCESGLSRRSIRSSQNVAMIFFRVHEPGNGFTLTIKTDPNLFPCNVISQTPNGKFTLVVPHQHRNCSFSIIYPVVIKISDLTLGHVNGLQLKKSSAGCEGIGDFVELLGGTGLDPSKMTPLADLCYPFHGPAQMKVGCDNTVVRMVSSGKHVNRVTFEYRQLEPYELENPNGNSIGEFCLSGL
# [3] = target: T2, Corticotropin-releasing factor receptor 2/Corticotropin-releasing factor-binding protein; experiment: activators of CRF receptor 2 with binding protein – uHTS hits, confirmation (AID 602473); assay type: functional; conditions: read-out: EC50_Mean
# [4] = target: T3, Replicative DNA helicase DnaB (Mycobacterium tuberculosis, UniProt P9WMR3); experiment: DnaB intein splicing inhibitors, dose response, biochemical, cell-free fluorescence (AID 449749); assay type: functional
# T3 sequence (P9WMR3 whole entry): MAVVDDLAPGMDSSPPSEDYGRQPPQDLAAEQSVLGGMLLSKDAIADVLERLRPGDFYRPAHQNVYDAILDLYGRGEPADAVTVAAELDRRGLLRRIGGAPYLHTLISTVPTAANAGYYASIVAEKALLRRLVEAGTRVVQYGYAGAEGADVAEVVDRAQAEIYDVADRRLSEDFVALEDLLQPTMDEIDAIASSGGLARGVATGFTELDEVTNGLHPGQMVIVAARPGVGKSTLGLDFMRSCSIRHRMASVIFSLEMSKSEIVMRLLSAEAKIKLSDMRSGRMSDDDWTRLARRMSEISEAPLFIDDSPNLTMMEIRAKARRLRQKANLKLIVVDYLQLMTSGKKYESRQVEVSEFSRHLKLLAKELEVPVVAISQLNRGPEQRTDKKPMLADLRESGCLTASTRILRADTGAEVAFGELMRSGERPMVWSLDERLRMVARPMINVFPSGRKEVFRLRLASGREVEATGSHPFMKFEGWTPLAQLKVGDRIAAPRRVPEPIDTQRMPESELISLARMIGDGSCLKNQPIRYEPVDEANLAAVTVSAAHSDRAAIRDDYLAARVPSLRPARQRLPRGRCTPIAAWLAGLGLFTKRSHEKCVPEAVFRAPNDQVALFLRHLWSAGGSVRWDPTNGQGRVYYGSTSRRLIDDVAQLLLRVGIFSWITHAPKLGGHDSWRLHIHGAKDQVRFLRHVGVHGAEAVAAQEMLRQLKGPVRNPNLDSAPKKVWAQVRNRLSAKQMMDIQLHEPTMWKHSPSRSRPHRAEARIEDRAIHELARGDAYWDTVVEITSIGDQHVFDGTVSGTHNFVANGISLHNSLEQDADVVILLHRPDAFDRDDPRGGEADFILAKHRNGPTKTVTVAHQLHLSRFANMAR
# Protein RecA = target: T4, Protein RecA (Mycobacterium tuberculosis, UniProt P9WHJ3); experiment: Fluorescence Cell-Free Homogeneous Dose Retest to Identify Inhibitors of RecA-Intein Splicing Activity. [Related pubchem assays (depositor defined):AID2097, AID2223, AID489010, AID492950]; assay type: functional
# T4 sequence (P9WHJ3 whole entry): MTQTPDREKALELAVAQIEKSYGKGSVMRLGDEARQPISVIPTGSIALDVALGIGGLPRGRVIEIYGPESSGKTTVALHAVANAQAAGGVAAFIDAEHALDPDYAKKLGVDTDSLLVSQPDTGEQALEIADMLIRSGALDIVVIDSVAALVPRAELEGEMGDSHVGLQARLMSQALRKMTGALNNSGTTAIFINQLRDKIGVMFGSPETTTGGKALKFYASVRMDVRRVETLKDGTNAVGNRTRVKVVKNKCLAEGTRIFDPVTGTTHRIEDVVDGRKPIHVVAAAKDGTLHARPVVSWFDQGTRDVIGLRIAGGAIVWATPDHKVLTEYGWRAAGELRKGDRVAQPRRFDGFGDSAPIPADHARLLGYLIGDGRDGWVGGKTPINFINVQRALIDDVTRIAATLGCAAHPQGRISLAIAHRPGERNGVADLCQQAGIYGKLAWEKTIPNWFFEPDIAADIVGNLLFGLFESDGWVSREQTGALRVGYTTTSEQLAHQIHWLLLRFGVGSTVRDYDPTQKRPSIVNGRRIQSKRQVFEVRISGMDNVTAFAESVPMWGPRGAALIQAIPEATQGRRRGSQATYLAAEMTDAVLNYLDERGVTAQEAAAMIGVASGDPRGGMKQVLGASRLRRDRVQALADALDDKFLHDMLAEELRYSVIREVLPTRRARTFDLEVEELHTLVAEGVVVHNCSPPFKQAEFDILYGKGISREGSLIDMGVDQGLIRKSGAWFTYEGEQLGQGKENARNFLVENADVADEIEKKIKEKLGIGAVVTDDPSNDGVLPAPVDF
# Cytochrome P450 2D6 = Cytochrome P450 2D6 (Homo sapiens, UniProt P10635);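 also: CYP2D6 member of a cytochrome P450 panel assay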
# Cytochrome P450 2C19 = Cytochrome P450 2C19 (Homo sapiens, UniProt P33261); experiment: Cytochrome panel assay with activity outcomes. Panel member name: p450-cyp2c19 Compounds with AC50 equal or less than 10 uM are considered active; assay type: functional
# Cytochrome P450 1A2 = target: T5, Cytochrome P450 1A2 (Homo sapiens, UniProt P05177);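 also: PubChem cytochrome P450 panel assay, CYP1A2 panel member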
# T5 sequence (P05177 whole entry): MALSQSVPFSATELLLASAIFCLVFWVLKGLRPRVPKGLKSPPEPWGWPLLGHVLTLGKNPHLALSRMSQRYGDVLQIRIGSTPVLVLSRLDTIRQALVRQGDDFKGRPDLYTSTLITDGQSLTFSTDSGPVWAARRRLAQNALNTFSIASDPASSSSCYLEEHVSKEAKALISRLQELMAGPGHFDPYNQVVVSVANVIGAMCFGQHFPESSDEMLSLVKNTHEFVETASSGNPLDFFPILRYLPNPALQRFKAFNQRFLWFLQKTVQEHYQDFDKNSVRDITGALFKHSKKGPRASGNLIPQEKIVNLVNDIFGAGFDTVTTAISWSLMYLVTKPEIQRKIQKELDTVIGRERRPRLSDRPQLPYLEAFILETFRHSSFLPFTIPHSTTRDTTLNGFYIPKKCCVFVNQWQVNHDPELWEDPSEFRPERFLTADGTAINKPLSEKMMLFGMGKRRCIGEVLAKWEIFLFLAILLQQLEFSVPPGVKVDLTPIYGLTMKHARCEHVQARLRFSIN
# Chain of Cytochrome P450 3A4 (P08684 whole entry): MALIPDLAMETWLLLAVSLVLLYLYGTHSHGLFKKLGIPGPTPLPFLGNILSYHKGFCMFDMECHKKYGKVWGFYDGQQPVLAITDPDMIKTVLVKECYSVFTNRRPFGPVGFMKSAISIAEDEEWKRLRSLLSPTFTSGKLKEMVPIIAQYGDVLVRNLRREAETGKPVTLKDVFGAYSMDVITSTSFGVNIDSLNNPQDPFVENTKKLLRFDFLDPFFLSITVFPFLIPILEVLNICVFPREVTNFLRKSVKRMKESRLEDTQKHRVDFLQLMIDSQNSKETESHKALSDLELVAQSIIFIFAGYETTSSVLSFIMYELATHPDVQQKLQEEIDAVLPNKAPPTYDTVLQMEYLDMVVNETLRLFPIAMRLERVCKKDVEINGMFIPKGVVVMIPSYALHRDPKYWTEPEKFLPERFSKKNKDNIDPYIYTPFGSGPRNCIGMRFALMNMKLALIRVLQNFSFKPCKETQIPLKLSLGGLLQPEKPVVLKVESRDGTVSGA
# Chain of Cytochrome P450 2C9 (P11712 whole entry): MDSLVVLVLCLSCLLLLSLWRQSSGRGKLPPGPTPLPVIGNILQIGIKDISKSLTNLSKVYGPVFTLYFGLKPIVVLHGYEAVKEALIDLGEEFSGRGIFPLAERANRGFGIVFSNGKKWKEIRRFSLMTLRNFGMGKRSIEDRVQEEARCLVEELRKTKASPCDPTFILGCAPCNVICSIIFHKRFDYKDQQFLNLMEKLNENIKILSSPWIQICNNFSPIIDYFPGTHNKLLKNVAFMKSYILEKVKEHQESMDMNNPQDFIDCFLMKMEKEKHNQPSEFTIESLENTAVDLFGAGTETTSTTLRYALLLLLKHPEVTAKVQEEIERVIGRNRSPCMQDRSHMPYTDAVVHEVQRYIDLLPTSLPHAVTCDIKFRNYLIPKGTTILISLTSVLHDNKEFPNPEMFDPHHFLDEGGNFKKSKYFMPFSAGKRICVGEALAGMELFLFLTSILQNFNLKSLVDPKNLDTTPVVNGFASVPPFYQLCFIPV
# Chain of Cytochrome P450 2D6 (P10635 whole entry): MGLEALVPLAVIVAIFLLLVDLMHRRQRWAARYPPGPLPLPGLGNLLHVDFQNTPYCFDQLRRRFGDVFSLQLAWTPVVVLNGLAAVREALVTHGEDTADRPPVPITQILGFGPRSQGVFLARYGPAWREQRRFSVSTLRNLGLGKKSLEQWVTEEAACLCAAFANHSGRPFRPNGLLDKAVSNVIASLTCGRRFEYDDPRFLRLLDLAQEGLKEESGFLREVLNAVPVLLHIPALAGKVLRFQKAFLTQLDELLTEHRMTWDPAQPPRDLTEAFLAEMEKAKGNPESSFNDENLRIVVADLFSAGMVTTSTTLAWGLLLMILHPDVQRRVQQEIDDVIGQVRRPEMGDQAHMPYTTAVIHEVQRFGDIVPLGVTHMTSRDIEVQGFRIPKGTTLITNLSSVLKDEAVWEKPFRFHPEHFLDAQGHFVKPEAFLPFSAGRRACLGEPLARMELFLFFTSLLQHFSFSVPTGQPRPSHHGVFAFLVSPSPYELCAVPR
# Chain of Cytochrome P450 2C19 (P33261 whole entry): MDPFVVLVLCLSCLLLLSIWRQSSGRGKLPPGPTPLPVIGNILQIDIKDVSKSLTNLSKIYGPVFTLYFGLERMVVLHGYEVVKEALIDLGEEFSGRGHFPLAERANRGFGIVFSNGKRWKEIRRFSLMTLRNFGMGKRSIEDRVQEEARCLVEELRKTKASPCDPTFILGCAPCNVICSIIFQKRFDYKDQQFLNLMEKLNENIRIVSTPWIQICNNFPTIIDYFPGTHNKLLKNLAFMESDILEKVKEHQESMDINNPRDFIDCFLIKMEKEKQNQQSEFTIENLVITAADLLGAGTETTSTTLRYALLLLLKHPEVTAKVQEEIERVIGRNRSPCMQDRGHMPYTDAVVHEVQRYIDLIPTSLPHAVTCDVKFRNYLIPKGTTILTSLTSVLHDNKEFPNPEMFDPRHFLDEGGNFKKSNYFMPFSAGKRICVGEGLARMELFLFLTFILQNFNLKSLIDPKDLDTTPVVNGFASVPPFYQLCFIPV
smiles,measurement,setting,value
Cc1cc(NC(=O)CSc2ccc3nnc(-c4ccc(F)cc4)n3n2)no1,AC50,Cytochrome P450 3A4,14.1 µM (inconclusive)
same,AC50,Cytochrome P450 2C9,25.1 µM (inconclusive)
COc1ccc(-n2c(=S)[nH]c3cc(C(=O)Nc4ccccc4OC)ccc3c2=O)cc1,AC50,INS1,6.62 µM (active)
CSC1=N/C(=C\c2ccc3c(c2)OCO3)C(=O)S1,AC50,Cytochrome P450 3A4,7.94 µM (inconclusive)
CCCCCCCCCCCCC(NC(C)=O)(C(=O)OCC)C(=O)OCC,EC50,[1],6.45 µM (active)
same,EC50,Streptokinase A,> 150 µM (not active)
same,EC50,Streptococcus,8.56 µM (active)
CCOC(=O)N1CCN(C(=O)c2ccc3nc(SCc4ccc(F)cc4)n(C)c3c2)CC1,IC50,[2],> 47.1 µM (inactive)
same,EC50,[3],> 53 µM (inactive)
same,AC50,Cytochrome P450 3A4,39.8 µM (inconclusive)
COc1ccc(OC)c(-c2[nH]nc3c2C(c2ccco2)C(C#N)=C(N)O3)c1 (stereo unspecified),AC50,[4],185 µM (active)
same,EC50,Protein RecA,3.22 µM (active)
COc1cccc(CN2CCN(Cc3ccc(C#CC(C)(C)O)s3)CC2CCO)c1 (stereo unspecified),AC50,[4],> 380 µM (inactive)
same,EC50,Protein RecA,> 380 µM (inactive)
COc1cccc(Cn2c(=O)c(-c3cccc(F)c3)nc3cncnc32)c1,AC50,Cytochrome P450 2D6,20 µM (inconclusive)
same,AC50,Cytochrome P450 3A4,7.94 µM (inconclusive)
Cc1ccc(C2C(C#N)=C(N)Oc3[nH]nc(-c4ccccc4)c32)o1 (stereo unspecified),AC50,[4],4.75 µM (active)
same,EC50,Protein RecA,19.3 µM (active)
CC1(C)S[C@@H]2[C@H](NC(=O)COc3ccccc3)C(=O)N2C1C(=O)OCc1cc2ccccc2n1S(=O)(=O)c1ccccc1 (stereo partly specified),EC50,[1],6.32 µM (active)
same,EC50,Streptokinase A,23.6 µM (active)
same,EC50,Streptococcus,39.9 µM (active)
CC12CCC(C(=O)Nc3cccc(Cl)c3Cl)([C@H](Br)C1=O)C2(C)C (stereo partly specified),EC50,[1],> 150 µM (not active)
same,EC50,Streptokinase A,> 150 µM (not active)
same,EC50,Streptococcus,> 150 µM (not active)
N#Cc1cccc(-c2nc(Nc3ccncc3)c3ccccc3n2)c1,AC50,Cytochrome P450 3A4,0.501 µM (inconclusive)
same,AC50,Cytochrome P450 2C9,1.58 µM (inconclusive)
CCCn1c(=O)[nH]c(=O)c2c1nc(-c1ccc(OC(F)F)c(OC)c1)n2CCOC,AC50,[4],> 380 µM (inactive)
same,EC50,Protein RecA,> 380 µM (inactive)
O=c1c2c(n3cnnc3n1-c1ccccc1)-c1ccccc1CC21CCCCC1,AC50,Cytochrome P450 2C19,inconclusive
same,AC50,Cytochrome P450 3A4,15.8 µM (inconclusive)
Cc1oc(C(C)(C)C)cc1C(=O)N1CCN(C(c2ccccc2)c2ccccc2)CC1,EC50,[1],2.64 µM (active)
same,EC50,Streptokinase A,17.6 µM (active)
same,EC50,Streptococcus,16.4 µM (active)
O=C(NCCNS(=O)(=O)c1ccc(Cl)cc1)c1cc(OCC(F)(F)F)ccc1OCC(F)(F)F,AC50,Cytochrome P450 2D6,3.16 µM (inconclusive)
same,AC50,Cytochrome P450 1A2,2.82 µM (inconclusive)
same,AC50,Cytochrome P450 3A4,7.08 µM (inconclusive)
same,AC50,Cytochrome P450 2C9,0.0251 µM (inconclusive)
COc1ccccc1NC(=O)Nc1nc(CC(=O)Nc2cc(F)ccc2F)cs1,EC50,[1],11.5 µM (active)
same,EC50,Streptokinase A,> 150 µM (not active)
same,EC50,Streptococcus,30.9 µM (active)
O=C(NNC(=S)NC(=O)c1ccco1)c1ccc(NC(=O)c2ccccc2)cc1,EC50,[1],0.973 µM (active)
same,EC50,Streptokinase A,> 150 µM (not active)
same,EC50,Streptococcus,9.14 µM (active)
C/C(=N/Nc1nc(-c2ccccc2)cc(-c2ccc(F)cc2)n1)c1cccc(N)c1,AC50,INS1,3.64 µM (active)
CC1=NC2(O)c3ccccc3C(=O)C2(O)/C1=C(/O)OC(C)C (stereo unspecified),AC50,[4],21.2 µM (active)
same,EC50,Protein RecA,14.7 µM (active)
O=C(C/C=N\OCc1c(Cl)cccc1Cl)Oc1ccc(Cl)cc1Cl,AC50,[4],21.8 µM (active)
same,EC50,Protein RecA,7.56 µM (active)
C/C(CC(=O)Nc1ccccn1)=N\NC(=O)c1ccncc1,AC50,[4],2.86 µM (active)
same,EC50,Protein RecA,1.94 µM (active)
COc1ccccc1N1CCN(CCN2C(=O)CC3(CCCC3)CC2=O)CC1 [BMY-7378],AC50,Cytochrome P450 3A4,20 µM (inconclusive) and 39.8 µM (inconclusive)
